Measured values: patent US11103478B2, “Anavex2-73 for the treatment of alzheimer's disease” (ANAVEX LIFE SCIENCES CORP., priority 2017, dated 2021)

What was measured:
[1] = Randomized, placebo-controlled single ascending dose Phase 1 study in healthy male volunteers; format: in vivo, human
Protocol: See Poster: A Phase 1 Dose Escalation Study to Investigate Safety, Tolerability, and Pharmacokinetics of ANAVEX2-73 in Healthy Male Subjects, CNS Summit 2014, Boca Raton, Fla., by Ole Voges, Ingo Weigmann, Norman Bitterlich, Christoph Schindler and Christopher Missling. […] Based on the frequency and intensity of […] adverse events (TEAEs) the maximum tolerable dose (MTD) and the minimum intolerable dose (MID) were defined as 55 mg and 60 mg, respectively.

[2] = test system: mild-to-moderate Alzheimer's disease patients; assay: Phase 2a trial: auditory P300 event related potential (three-stimulus oddball paradigm); format: in vivo, human
Protocol: (§1) The 36-day multicenter randomized clinical trial included both male and female mild-to-moderate Alzheimer's disease patients. ANAVEX2-73 was administered to twelve subjects as an add-on therapy to the donepezil current standard of care. ANAVEX2-73 was administered according to a two-period on-off-on cross-over dosing regimen in which the subjects were administered ANAVEX2-73 for 12 days (1st period) followed by a 12-day wash-out period before being administered ANAVEX2-73 for a second 12-day period (2nd period). Those subjects that were administered ANAVEX2-73 by oral administration during the 1st period were administered ANAVEX2-73 intravenously during the 2nd period, and vice versa. About half of the subjects were administered a 30 mg oral dosage form while the other half of subjects were administered a 50 mg oral dosage form. The intravenous dosage was either 3 mg or 5 mg, with about half of the subjects administered 3 mg and the other half administered 5 mg.
Resting electroencephalographic (EEG) activity and event related potentials (EEG/ERP) were used to assess the cognitive effects of ANAVEX2-73 administration. Event related potentials (ERPs) are voltage changes time-locked to some physical or mental occurrence in ongoing electrical brain activity, as recorded by EEG. Event-related potentials (ERPs) provide a sensitive and reliable measure of the cognitive effects associated with early Alzheimer's disease. […] See for example, New Encycl. Neurosci., Oxford Academic Press, p. 13-18 (2009). For example, ERP tests on young presymptomatic individuals who carry mutations in the presenilin-1 and amyloid precursor protein genes show significant changes in ERP patterns years before the onset of behavioral symptoms and the development of Alzheimer's disease. See for example, Neurology 73, 1649-1655 (2009); Neurology 77, 469-475 (2011). […] For instance, ERP markers of cognitive function are increasingly altered in longitudinal studies on individuals with mild cognitive impairment (MCI) and Alzheimer's disease patients. See for example, Clin. Neurophysiol. 122, 1322-1326 (2011); Clin. Neurophysiol. 121, 194-199 (2010). […] See for example, Neurol. Neurochir. Pol. 35 Suppl 3, 37-43 (2001); Clin. Neuropharmacol. 25, 207-215 (2002); Neurosci. Biomed. Eng. 1, 34-39 (2013).
In particular, the auditory P300 component of the ERP has been widely applied in the study of age-related cognitive dysfunction because it is thought to reflect attentional and memory processes. Auditory P300 is a positive deflection occurring at about 300 ms from stimulus onset. It is generated by the activation of multiple neocortical and limbic regions. […]

[3] = test system: mild-to-moderate Alzheimer's disease patients; assay: Phase 2a trial: EEG peak alpha frequency (PAF); format: in vivo, human; conditions: 12 patients, day 36
Protocol: as §1, with “About half of the subjects were administered a 30 mg oral dosage form while the other half of subjects were administered a 50 mg oral dosage form. The intravenous dosage was either 3 mg or 5 mg, with about half of the subjects administered 3 mg and the other half administered 5 mg.” left out
Subjects were tested using a three-stimulus oddball paradigm. […] Electroencephalographic (EEG) activity was recorded from seven electrode sites (Fz, Cz, Pz, F3, P3, F4, and P4) of the international 10-20 system using a COGNISION™ Headset (Neuronetrix). […]
FIG. 8 illustrates electroencephalographic (EEG) peak alpha frequency (PAF) data for twelve patients at baseline and day 36 following the on-off-on ANAVEX2-73 dosing regimen, as compared to a healthy control group. Electroencephalographic (EEG) peak alpha frequency (PAF), measured in Hz, is a distinctive individual “fingerprint” that has been correlated to cognitive performance and reflects a trait or state of cognitive preparedness. […]

[4] = test system: mild-to-moderate Alzheimer's disease patients; assay: Phase 2a trial: MMSE and Cogstate scales, safety profile; format: in vivo, human
Protocol: as §1
The results for the twelve subject on-off-on dosing regimen of ANAVEX2-73, shown in FIGS. 5-9, were achieved without any dose optimization. […] An additional 20 subjects will be studied during the remainder of the Phase 2a clinical trial. Phase 2b clinical trials, involving an additional 26-week extension of daily oral dosage administration of ANAVEX2-73 is on-going.

[5] = test system: patients with early signs of Alzheimer's disease; assay: Single-patient examples of intermittent dosing in early Alzheimer's disease (Examples 1-5); format: in vivo, human
From the text: The following examples show uses of ANAVEX2-73 in the treatment of patients with Alzheimer's disease or presenting with the early signs of Alzheimer's disease. The clinical determination that a patient may have Alzheimer's disease or is presenting with early signs of Alzheimer's disease is well known in the art. By way of example, the following references (and all publications cited herein) are incorporated by reference herein in their entireties: Dementia: From Diagnosis to Management—A Functional Approach 1st Edition, Psychology Press (Feb. 17, 2009); Clinician's Guide to Psychological Assessment and Testing: With Forms and Templates for Effective Practice 1st Edition, Springer Publishing Company (Sep. 18, 2012); Neurodegener. Dis. Manag. 5(3), 191-201 (2015); Artif. Intell. Med. 64(1), 59-74 (2015); Clin. Chem. 60(12), 1585-1586 (2014); and Metabolism 64(3 Suppl 1), S47-50 (2014).
(§2) A person presents with early signs of Alzheimer's disease. They are orally administered a pharmaceutical composition containing 30 mg ANAVEX2-73 according to an intermittent dosing regimen where each cycle includes daily administration for 10 days (dosing period) followed by 10 days of no administration (resting period). The patient is administered 30 mg ANAVEX2-73 according to the intermittent dosing regimen for 6 months. Their loss of cognitive function stabilizes during that period.
(§3) A person presents with signs of early onset Alzheimer's disease. They are orally administered a pharmaceutical composition containing 50 mg ANAVEX2-73 according to an intermittent dosing regimen where each cycle includes daily administration for 10 days (dosing period) followed by 20 days of no administration (resting period). Their loss of cognitive function stabilizes during that period.
as §3, with “are” for “are orally”, “3” for “a pharmaceutical composition containing 50”, “mg of” for “mg”, “ANAVEX2-73 intravenously” for “ANAVEX2-73”, “5” for “10”, “period) for one year.” for “period).”
A person presents with signs of early onset Alzheimer's disease. They are administered 5 mg of ANAVEX2-73 intravenously according to an intermittent dosing regimen where each cycle includes daily administration for 14 days (dosing period) followed by 7 days of no administration (resting period) for one year. Their loss of cognitive function stabilizes during that period.
as §2, with “containing 50” for “containing 30”, “for 14” for “for 10”, “by 7” for “by 10”, “administered 50” for “administered 30”, “function is stabilized” for “function stabilizes”

[6] = target: sigma-1 receptor (Homo sapiens, UniProt Q99720); conditions: believed to bind; cited from earlier work
[7] = test system: muscarinic acetylcholine receptors; conditions: believed to bind; cited from earlier work
[8] = test system: amyloid β25-35 peptide (Aβ25-35) toxicity; conditions: cited from earlier work

sigma-1 receptor, sequence (Q99720 whole entry, species assumed): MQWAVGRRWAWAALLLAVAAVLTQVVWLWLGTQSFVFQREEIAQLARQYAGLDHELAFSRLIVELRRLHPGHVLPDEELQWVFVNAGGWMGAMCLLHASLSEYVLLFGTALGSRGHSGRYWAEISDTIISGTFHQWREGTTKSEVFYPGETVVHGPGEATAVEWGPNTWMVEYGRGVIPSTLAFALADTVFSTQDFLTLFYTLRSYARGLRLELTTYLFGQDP

Structure (SMILES): CN(C)CC1CCOC1(c1ccccc1)c1ccccc1.Cl (stereo not shown) [ANAVEX2-73, tetrahydro-N,N-dimethyl-2,2-diphenyl-3-furanmethanamine hydrochloride]
- observed adverse events ([1]; human, in vivo): moderate and reversible dizziness and headache
- QT interval and QTcB ([1]; human, in vivo, po): did not reveal any clinically significant changes
- blood pressure, resting heart rate, vital signs and 12-lead ECG ([1]; human, in vivo, po): did not show any clinically relevant or dose-dependent changes
- pharmacokinetics ([1]; human, in vivo, po): suitable for daily oral dosing
- serious adverse events ([1]; human, in vivo, po): No serious adverse events occurred
- minimum intolerable dose (MID) ([1]; male, human, in vivo, po): 60 mg
- maximum tolerable dose (MTD) ([1]; single oral dose, healthy male volunteers): 55 mg
- P300 ERP wave: measured cognitive performance vs baseline ([2]; 12 patients, day 36, on-off-on regimen (30/50 mg oral, 3/5 mg i.v.), add-on to donepezil): improved measured cognitive performance
- P300 amplitude, Percentage Increase Over Baseline Data ([2]; 12 patients, day 36 vs baseline, hydrochloride): 38%
- P300 amplitude change vs historical donepezil at the 1 month time point ([2]; day 36 (1 month), change from baseline, donepezil data from the literature): about four times higher
- percent P300 amplitude change after 1 month vs historical donepezil after 6 months ([2]; day 36 (1 month), donepezil data from the literature): greater
- EEG peak alpha frequency (PAF) vs baseline [3]: higher
- safety profile during Phase 2a ([4]; Phase 2a trial): consistent with the Phase 1 data
- Mini Mental State Examination (MMSE) and Cogstate scale changes ([4]; preliminary, 12 patients): consistent with the observed trend of the cognitive EEG/ERP effect
- loss of cognitive function ([5]; Example 1: person, 30 mg oral, 10 days on / 10 days off, 6 months): stabilizes
- loss of cognitive function ([5]; Example 2: person, 50 mg oral, 10 days on / 20 days off): stabilizes
- loss of cognitive function ([5]; Example 3: person, 3 mg intravenously, 5 days on / 20 days off, one year): stabilizes
- loss of cognitive function ([5]; Example 4: person, 5 mg intravenously, 14 days on / 7 days off, one year): stabilizes
- loss of cognitive function ([5]; Example 5: person, 50 mg oral, 14 days on / 7 days off, 6 months): is stabilized
- affinity for sigma-1 receptor [6]: low micromolar range
- affinity for muscarinic acetylcholine receptors [7]: low micromolar range
- hyperphosphorylation of Tau on physiological (AT-8) and pathological (AT-100) epitopes ([8]; in the dose-range tested): attenuated
- oxidative stress, caspases induction, cellular loss and learning and memory deficits ([8]; mice one week after i.c.v. injection of oligomeric Aβ25-35): attenuating
- Aβ25-35-induced P-Akt decrease and P-GSK-3β increase ([8]; mice, Aβ25-35): blocked
- Aβ25-35-induced endogenous Aβ1-42 seeding ([8]; mouse, in vivo): decrease
